Data taken from ChEMBL document CHEMBL1201862, “PubChem BioAssay data set” (2004).
Calls of active or inactive are those of the source.

How the values were obtained:
[1] = HepG2 cell cytotoxicity, dose response, cytotoxicity control for non-replicating M. tuberculosis project (AID 489018); format: functional; settings: Mycobacterium tuberculosis
[2] = target: T1, Heat shock factor protein 1 (Mus musculus, UniProt P38532); experiment: decrease of HSF1-responsive luciferase luminescence – cell-based, NIH3T3, dose retest, confirmation (AID 2382); format: functional;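 also: NIH3T3 fibroblasts with HSF1-driven luciferase reporter stressed by proteasome inhibitor MG132; luminescence from HSF1-driven luciferase expression after 8 hours of MG132 stress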
T1 sequence (P38532 whole entry): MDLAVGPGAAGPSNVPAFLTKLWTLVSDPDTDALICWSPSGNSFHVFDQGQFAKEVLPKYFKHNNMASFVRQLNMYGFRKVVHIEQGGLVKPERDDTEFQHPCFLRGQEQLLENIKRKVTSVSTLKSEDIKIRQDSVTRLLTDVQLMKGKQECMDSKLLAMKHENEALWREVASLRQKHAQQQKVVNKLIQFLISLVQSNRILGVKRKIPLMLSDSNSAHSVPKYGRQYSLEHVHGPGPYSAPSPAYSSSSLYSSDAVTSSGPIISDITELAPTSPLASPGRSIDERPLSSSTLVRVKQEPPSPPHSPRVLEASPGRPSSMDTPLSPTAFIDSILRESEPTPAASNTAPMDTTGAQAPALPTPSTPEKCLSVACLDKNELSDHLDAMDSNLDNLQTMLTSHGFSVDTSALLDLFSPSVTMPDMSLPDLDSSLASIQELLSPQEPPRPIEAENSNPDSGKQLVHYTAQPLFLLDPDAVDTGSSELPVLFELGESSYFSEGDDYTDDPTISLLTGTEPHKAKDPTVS

| Compound | CC50 [1] | EC50 [2] |
| --- | --- | --- |
| O=C(Nc1ccccc1)c1nnsc1[S+]([O-])c1ccc(Cl)cc1 (configuration not stated) | 19.1 µM (active) | – |
| CC1OC(Nc2cccc3ccccc23)C(O)C(O)C1O (configuration not stated) | – | > 195 µM (not active) |
